Results from patent US9051240B2, “Substituted 2-[2-(phenyl) ethylamino] alkaneamide derivatives and their use as sodium and/or calcium channel modulators” (Newron Pharmaceuticals S.P.A., priority 2007, dated 2015).
Like-named read-outs stand apart in the source and are kept apart here.

Tests used:
MAO-B = MAO-B (Rattus norvegicus (Rat), UniProt P19643); assay: In vitro MAO-B enzyme activity assay (radioenzymatic, rat brain mitochondria); type: biochemical; conditions: 14C-PEA 0.5 μM
Experimental: Male Wistar rats (Harlan, Italy weighing 175-200 g) were sacrificed under light anaesthesia and brains were rapidly removed and homogenized in 8 volumes of ice-cold 0.32 M sucrose buffer containing 0.1 M EDTA, pH 7.4. The crude homogenate was centrifuged at 2220 rpm for 10 minutes and the supernatant recovered. The pellet was homogenized and centrifuged again. The two supernatants were pooled and centrifuged at 9250 rpm for 10 minutes at +4° C. The pellet was resuspended in fresh buffer and centrifuged at 11250 rpm for 10 minutes at +4° C. The resulting pellet was stored at −80° C. The enzyme activity was assessed with a radioenzymatic assay using the substrate ^14C-phenylethylamine (PEA) specific for MAO-B. The mitochondrial pellet (500 μg protein) was resuspended in 0.1 M phosphate buffer (pH 7.4). 200 μl of the suspension were added to a 50 μl solution of the test compound or buffer, and incubated for 30 min at 37° C. (preincubation) then the substrate (50 μl) was added. The incubation was carried out for 10 minutes at 37° C. (^14C-PEA, 0.5 μM). The reaction was stopped by adding 0.2 ml of perchloric acid. After centrifugation, the deaminated metabolites were extracted with 3 ml of toluene and the radioactive organic phase containing the neutral and/or acidic metabolites formed as a result of MAO-B activity was measured by liquid scintillation spectrometry at 90% efficiency. The MAO-B activity was expressed as nmoles of substrate transformed/mg protein/min.

mice [1] = assay: Formalin test; type: in vivo; conditions: Mus musculus, po
Experimental: According to a modified protocol from Rosland et al. (Rosland J. H., Tjolsen A., Maehle B., Hole K. Pain (1990) 42: 235-242), mice were injected subcutaneously (s.c.) with 20 μl of 2.7% solution of formalin into the plantar surface of left hindpaw and placed immediately into clear PVC observation chambers (23×12×13 cm). Pain behaviour was quantified by counting the cumulative licking time (s) of the injected paw. Measurements were taken during the early phase (0-5 min) and late phase (20-40 min) after formalin injection (Tjolsen A., Berge O. G., Hunskaar S., Rosland J. H., Hole K. Pain (1992) 51: 5-17).
The test compound was administered p.o. or s.c. 5-45 minutes before formalin injection in a volume of 10 ml/kg body weight to groups of 10 mice per dose. Control group was treated with vehicle.

[2] = biological target: Na+ currents in rat cortical neurons; assay: Patch clamp evaluation of Na+ currents blockade in rat cortical neurons; type: cell-based
Experimental: Cortical neurons were prepared from embryonic Wistar rats (E17-E19). A female rat at date 17-19 of pregnancy was anesthetized and sacrificed. The fetuses (n=4-5) were dissected and placed in ice-cold Hank's solution (Hank's solution (Life tech.14170-088)+glucose 30%+Pen-Strep 100× (Life Tech. 15140-122) 100U-100 μg/ml and Hepes-NaOH 5 mM). The uterus and placenta were removed, the fetuses were decapitated and the heads were placed in ice-cold Hank's solution. Cells were counted and diluted in Neurobasal medium to a concentration of 400000 cells per poly-D-lysine 5 μg/ml treated Petri dish. Cortical neurons were used from day 6th till day 11th after plating, and once a week Neurobasal medium was changed. Experiments on cortical neurons were carried out using standard whole cell patch clamp methods (Hamill et al., Pfugers Arch., 1981 August, 391(12), 85-100). Membrane currents were recorded and filtered at 5 kHz with an Axon Axopatch 200B amplifier and data digitized with an Axon Digidata 1322A (Axon Instruments, CA, USA). Protocol playing and data acquisition were controlled online with Axon pClamp8 software. Measuring and reference electrodes were AgCl-Ag electrodes. A Sutter Instrument P-87 Puller (CA, USA) was used for pulling patch clamp pipettes with a resistance of 2-3 MΩ from Harward borosilicate glass tubes. Cells were continuously superfused with extracellular solutions, using a solution changer Biologic RSC-200. To test the effect of compounds on sodium currents in cortical neurons, cells were clamped at -90 mV, then a two step protocol was used to determine the voltage dependence of the block. […] Tonic block of resting and depolarized currents at a given drug concentration, was calculated as the difference between the peak Na^+ current in the control external bath solution and peak currents with the test substance divided by control peak. Drug concentration-inhibition curves were obtained by plotting tonic blocks in the resting and depolarized condition, versus drug concentrations. Dose-response curves were fitted to the tonic block data, according to the logistic equation: […] Control bath solution contained (mM): […] Internal pipette solution consisted of (mM): […] Compounds were dissolved as stock solutions (20 mM) in DMSO. They were diluted to the final concentrations in the external solution.

mice [3] = assay: Maximal electroshock test (MES) in mice; type: in vivo; conditions: Mus musculus, iv; mice, MES, i.v.; read-out: MES ED50 mg/kg i.v.
Excerpt: The maximal electroshock test (MES) is used commonly in the screening of anti-epileptic drugs in rodent models.
Animals and Apparatus: Male CD1 mice weighing 25 g were used. The procedure described by White et al. (White H. S., Woodhead J. H., Franklin M. R., Swinyard E. A., and Wolf H. H. Antiepileptic Drugs (1995) 4th ed: 99-110, Raven Press, Ltd., New York) was followed. An Ugo Basile electroconvulsive generator (Model ECT UNIT 7801) was used to deliver an electrical stimulus sufficient to produce a hindlimb tonic extensor response in at least 97% of control animals. The stimulus was delivered intra-aurally through clip electrodes in mice (0.7 s of a 40 mA shock, with a pulse train of 80 Hz having a pulse duration of 0.4 ms). The acute effect of compounds administered intraperitoneally (i.p.), subcutaneously (s.c.), intravenously (i.v.) or orally (p.o.) 5-120 minutes before MES induction were examined and compared with a vehicle control group. Ten mice were studied per group. Complete suppression of the hindlimb tonic extensor component of seizures was taken as evidence of anticonvulsant activity.
The compounds of the invention were administered p.o. or i.v., at the doses of 0.1-100 mg/kg.

TTXs sodium channels = assay: TTXs-sodium channel influx assay (fluorescence, ND7/23 cell line); type: cell-based, rat; conditions: ND7/23 cells, veratridine 100 μM; read-out: Na+ influx IC50
Experimental: ND7/23 rat dorsal root ganglion-derived cell line endogenously expresses a mixed population of TTXs sodium channels. These cells lack of TTXr sodium channels as shown by the absence of their respective transcripts.
ND7/23 cells were grown in DMEM supplemented with 10% FBS and 1 mM sodium piruvate. The cells were seeded at 50,000 cells/well on 96 poly-L-lysine-coated plates and further incubated for 18-24 h before use.
The Membrane Potential Kit Assay (Molecular Devices), based on a negatively charged fluorescent dye able to monitor changes in membrane potential caused by the sodium influx due to the channel opening, was used for the assay.
Cells were incubated with the dye loading for 30 minutes at 25° C. Then, 100 nM of the toxin Anemonia sulcata (used as enhancer of the channel opener response) alone or in the presence of TTX (as reference standard) or test compound were added for further 15 minutes.
The fluorescence (excitation:530 nm, emission: 565 nm wavelength) was measured before and after (40-45 s) the automated injection of the sodium channel opener veratridine (100 μM) using a Victor plate reader (Perkin Elmer).
(§1) The inhibition curves were calculated from 5 concentrations, each in triplicate, and the IC50 determined using linear regression analysis.

L-type calcium channels = assay: Calcium channel influx assay (fluorescence, AtT20 cell line); type: cell-based, mouse; conditions: AtT20 cells, 100 mM KCl depolarization; read-out: Ca++ influx IC50
Experimental: AtT20/D16v-F2 mouse pituitary tumour cell line preferentially expresses L-type calcium channels.
AtT20 cells were grown in DMEM with 10% of FBS, 4 mM glutamine. The cells were seeded at 200,000 cells/well on 96 poly-L-lysine-coated plates and further incubated for 18-24 h, before use.
The Ca^++ Kit Assay (Molecular Devices), which is based on a fluorescent calcium indicator to detect the calcium influx determined by depolarizing conditions, was used for the assay.
Cells were incubated with the calcium dye loading for 30 min at 37° C. Then, ω-conotoxin alone (1 μM) or in presence of nifedipine (as reference standard) or test compound were added for further 15 min.
The fluorescence (excitation: 485-emission: 535 nm wavelength) was measured before and after (30-40 sec) the automated injection of 100 mM KCl depolarizing solution using a Victor plate reader (Perkin Elmer).
as §1

Chain of MAO-B (P19643 whole entry): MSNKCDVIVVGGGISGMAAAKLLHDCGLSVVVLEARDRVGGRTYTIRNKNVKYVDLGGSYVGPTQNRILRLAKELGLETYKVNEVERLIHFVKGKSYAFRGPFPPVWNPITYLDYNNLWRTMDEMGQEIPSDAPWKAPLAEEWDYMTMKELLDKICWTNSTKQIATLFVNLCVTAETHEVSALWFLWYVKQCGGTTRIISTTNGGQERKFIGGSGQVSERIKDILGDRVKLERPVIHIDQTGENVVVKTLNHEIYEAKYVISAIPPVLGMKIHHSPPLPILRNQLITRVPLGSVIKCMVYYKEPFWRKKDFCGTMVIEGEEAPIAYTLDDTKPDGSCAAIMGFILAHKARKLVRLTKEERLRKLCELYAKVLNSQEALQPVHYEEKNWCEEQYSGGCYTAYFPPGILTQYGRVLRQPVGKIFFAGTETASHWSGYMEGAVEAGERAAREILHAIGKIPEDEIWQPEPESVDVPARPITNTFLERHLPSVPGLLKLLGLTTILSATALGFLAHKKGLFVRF

IC50 (MAO-B): 0.1 µM | Ki ([2]; calculated from Kr and Kdep, read-out: Ki (apparent affinity for the inactivated state)): 3.6 µM | IC50 ([2]; preconditioning potential -110 mV, read-out: IC50 resting (Kr)): > 100 µM | IC50 ([2]; preconditioning potential ~-50 mV, read-out: IC50 depolarized): 7 µM | IC50 ([2]; resting condition, figure in parentheses after >100, read-out: IC50 resting (Kr), value in parentheses): 180 µM | IC50 (TTXs sodium channels): 7.4 µM | IC50 (L-type calcium channels): 33 µM
Structure (SMILES): C[C@H](NCc1ccc(OCc2cccc(F)c2)cc1)C(N)=O [safinamide, (S)-(+)-2-[4-(3-fluorobenzyloxy)-benzylamino]-propanamide]
ED50 (mice [1]): 69.4 mg/kg | ED50 (mice [3]): 4 mg/kg
